Experimental data: patent US20240197761A1, “FUCOSYLATION AND IMMUNE MODULATION IN CANCER” (H. LEE MOFFITT CANCER CENTER AND RESEARCH INSTITUTE, INC., priority 2021, published 2024)

How the values were obtained:
[1] = test system: HLA-DRB1 in WM793 and 1205Lu cells; assay: Cell surface fucosylation and HLA-DRB1 (flow cytometry), HLA-DRB1 mRNA (qRT-PCR) and protein (IB) in melanoma cells; assay type: cell-based, human; details: 250 μM, 72 h
Description: FIGS. 18A-18F show N-linked fucosylation of HLA-DRB1 at N48 regulates its cell surface localization and is required for tumor suppression and increased TIL abundance. (a) (upper) Amino acid sequence alignments showing conservation of predicted N- and O-linked fucosylation sites in human HLA-DRB1 (N48 and T129) and mouse H2EB1 (N46 and T147). Structural modeling of the HLA-DRB1:HLA-DM (lower left) and CD4:HLA-DRB1:TCR (lower right) complexes. Potential glycosylation sites, N48 and T129, of HLA-DR1 beta chain are shown as sticks. CD4 (cyan), HLA-DRB1 (yellow), antigen peptide (magenta), and TCR (green)(lower right). (b) HLA-DRB1 peptide fragment identified by nano-LC/MS to be fucosylated on N48, with predicted HexNAc(4)Hex(3)Fuc(1) glycan structure shown above. (c) Lectin pull down (LPD) and IB analyses of EV and V5-tagged wild-type HLA-DRB1 (WT)-, HLA-DRB1 N48G (N48G)-, and HLA-DRB1 T129A (T129A)-expressing WM793 cells. (d) DMSO- or fucosyltransferase inhibitor (FUTi)-treated WM793 cells immunofluorescently stained for endogenous HLA-DRB1, KDEL (ER marker), and DAPI (20× magnification). (e) Flow cytometric analysis for relative cell surface fucosylation (upper) and cell surface HLA-DRB1 (upper middle), qRT-PCR analysis of relative HLA-DRB1 mRNA levels (lower middle), and IB analysis of HLA-DRB1 protein levels (lower) in WM793 and 1205Lu cells treated with DMSO (D), 250 μM FUTi (i), or 250 μM L-fuc (LF). (f) Volumetric growth curves for shNT (non-targeting shRNA)+EV (control SW1 tumors)(upper left) or shEB1 tumors reconstituted with EV (upper right), EB1 WT (lower left), or EB1 N46G (lower right) in C3H/HeN mice. Control (grey) or L-fucose supplemented water (red, 100 mM; ▾=initiated supplementation) was provided ad libitum. The tumor growth curves are means±SEM from ≥7 mice per group. *=p<0.05.
FIGS. 19A and 19B show nano-LC/MS spectral identification of fucosylated HLA-DRB1 peptide; and the effects of modulating fucosylation on HLA-DRB1 localization, total protein, and mRNA levels (a) nano-LC/MS/MS spectra showing fucosylated HLA-DRB1 peptide (arrow). (b) Flow cytometric analysis for relative cell surface fucosylation (upper) and cell surface HLA-DRB1 levels (upper middle), qRT-PCR analysis of relative HLA-DRB1 mRNA levels (lower middle), and IB analysis of HLA-DRB1 protein levels (lower) in indicated melanoma cell lines treated with DMSO (D), 250 μM FUTi (i), or 250 μM L-fuc (LF). *=p<0.05.
HLA-DRB1, and PD-L1: Indicated cells were treated for 72 h with DMSO, 250 μM fucosyltransferase inhibitor (FUTi) (Millipore Sigma (St. Louis, MO)), or 250 μM of L-fucose (Biosynth (Oak Terrace, IL)). After 72 h, cells were stained with 0.1 μM PKH26 (Millipore Sigma (St. Louis, MO)) prior to fixation in 4% formaldehyde solution. The cells were stained with anti-HLA-DRB1 and fluorescein AAL, or anti-human or anti-mouse PD-L1 overnight. The following day the cells were washed 3 times prior to adding AlexaFluor 594 donkey anti-rabbit. Cells were washed 3 times and then subject to flow cytometric analyses using a FACSCalibur (BD Biosciences (San Jose, CA)). Samples were analyzed using FlowJo analysis software (BD Biosciences (San Jose, CA)). Median values of DRB1 and AAL were normalized to PKH26 values and statistical analysis was performed using GraphPad Prism.
Cells were lysed on ice in RIPA lysis buffer (25 mM Tris-HCl pH 7.6, 150 mM NaCl, 5 mM EDTA, 1% NP-40 or 1% Triton X-100, 1% sodium deoxycholate, 0.1% SDS in diH20+protease and phosphatase inhibitors (ThermoFisher Scientific (Waltham, MA)), briefly sonicated, pelleted, and the resulting lysates were normalized by protein concentration using DC assay (BioRad Laboratories, (Hercules, CA)). The indicated samples were subjected to (12%) SDS-PAGE and immunoblot analysis using the indicated antibodies. Immunoblot imaging and analysis was performed using either an Odyssey FC scanner and ImageStudio (LiCor Biosciences, Lincoln, NE) or film. […]

dendritic cells = assay: TLR profiles of bone marrow-derived dendritic cells (RT-qPCR); assay type: cell-based, Balb/C mice; details: 250 uM L-fucose, 96 hours, then LPS 24 hours
Procedure: Bone marrow was harvested from either 4-week-old (young) or 6-month-old (old) Balb/C mice. Cells were isolated and cultured in DC maturation cocktail ([…], […], ±250 uM L-fucose) for 96 hours. At 96 hours the cells were treated with 10 ug/ml LPS for 24 hours after which the cells were harvested, and the RNA was extracted. RT-qPCR was performed. Data represents fold change of indicated genes normalized to values of young mice. N=3 mice per age group.

mouse melanoma tumors = assay: Earlier mouse melanoma model with dietary fucose supplementation or FUK overexpression (tumor growth, CD45 and DX5 staining); assay type: in vivo
Procedure: To determine whether dietary or genetic modulation of fucosylation affects tumor growth and metastasis, we previously studied a mouse melanoma model in which tumor fucosylation was increased either by dietary supplementation (FIG. 2A) with 100 mM fucose or by overexpressing mouse FUK (FIG. 2B). […] To determine whether fucosylation affects tumor infiltration by immune cells, Immunofluorescent staining analysis of CD45 (general leukocyte marker, red) and DAPI (blue) was performed (FIG. 2C). To determine whether fucosylation affects tumor infiltration by NK cells, immunofluorescent staining analysis for DX5 (an NK cell marker, red) and DAPI (blue) was performed (FIG. 2D). Both NK cells and CD4+ T cells were elevated in samples from fucose supplemented mice.

`CC(=O)OC1O[C@@H](C)[C@@H](OC(C)=O)[C@@H](OC(C)=O)[C@@H]1F` (stereo partly shown) [FUTi, 2F-peracteyl-fucose, reference compound] was tested, and the “HLA-DRB1 mRNA and protein levels” value [1] was “remained unchanged”, the “cell surface HLA-DRB1” value [1] was “decreased” and the cell surface fucosylation [1] was “decreased”.

`C[C@H](O)[C@@H](O)[C@@H](O)[C@H](O)C=O` [L-fucose] was tested, and the “TLR profiles of dendritic cells” value (dendritic cells) was “alters”, the “block of tumor growth and metastasis” value (mouse melanoma tumors; dietary L-fucose supplementation, mouse models) was over 50% and the tumor suppression (mouse melanoma tumors; dietary supplementation with 100 mM fucose (FIG. 2A)) was “increased tumor suppression”. The “NK cells and CD4+ T cells in tumor samples” value (mouse melanoma tumors; fucose supplemented mice (FIG. 2C, 2D)) was “elevated”, the “HLA-DRB1 mRNA and protein levels” value [1] was “remained unchanged” and the “cell surface HLA-DRB1” value [1] was “increased”. The cell surface fucosylation [1] was “increased”.
